The compounds below were run on Hepatocyte (assay: Hepatoprotective activity in Wistar rat CCL4-damaged hepatocyte assessed as blockade of glutamic pyruvic transaminase release at 100 uM relative to control).
Format: functional, cell-based

Point of comparison: `C[C@@H]1[C@H]2c3cc4c(cc3O[C@@]35OCOC3=CC(=O)[C@@H](C[C@H]1C)[C@@H]25)OCO4`, Activity 75.9%. Against it:
- C[C@@H]1[C@H]2c3cc4c(cc3O[C@@]35OCOC3=CC(=O)[C@H](C[C@H]1C)[C@H]25)OCO4 [SAUCHINONE A] — higher, 78.2%
- C[C@@H]1[C@H]2c3cc4c(cc3O[C@@]35OCOC3=CC(=O)[C@H](C[C@H]1C)[C@@H]25)OCO4 [SAUCHINONE] — lower, 70.1%
- COc1cc(C2Oc3cc([C@H]4Oc5cc(O)cc(O)c5C(=O)[C@@H]4O)ccc3OC2CO)ccc1O (some centres undefined) [SILIBININ] — higher, 76.6%

Source: ChEMBL document CHEMBL1155559, “Hepatoprotective diastereomeric lignans from Saururus chinensis herbs” (J Nat Prod, 2000)
